Data: patent US12534707B2, “Method for generating cardiac tissue mimetics” (GENOME BIOLOGICS UG, priority 2019, dated 2026)
Entries after “also recorded” stand apart in the source; their conditions may differ.

Tests used:
HUVEC = assay: Tube formation assay; type: cell-based, human; conditions: 1 μM Propranolol or 50 μM Metoprolol, 24 hours on Matrigel, vs Ctrl. and 0.1% DMSO; FIGS. 23, 24
Procedure: Tube formation assay was performed as previously described (J. U. G. Wagner, E. Chavakis, E. M. Rogg, M. Muhly-Reinholz, S. F. Glaser, S. Gunther, D. John, F. Bonini, A. M. Zeiher, L. Schaefer, M. J. Hannocks, R. A. Boon, S. Dimmeler, 2018, Arterioscler Thromb Vasc Biol 38(5), 1170-1177). Briefly, in vitro tube formation was performed with 2×10^4 HUVECs cultured in 100 μL of fully supplemented EBM™ in 96-well plates (Greiner Bio-One GmbH) that had been coated with 100 μL Matrigel® (Corning; 356234).

[1] = system: cardiac tissue mimetics (CTMs); assay: CTM vascularisation (GFP-HUVEC sprout length, thickness, branch points); type: cell-based, rat, human; conditions: 200 μM PE with 1 μM Propranolol or 50 μM Metoprolol, 10 days, vs 0.1% DMSO; FIGS. 21, 22
[2] = system: cardiac tissue mimetics (CTMs); assay: Contractility measurement of CTMs (spontaneous beats per minute; pacing at 1 Hz and 15 V); conditions: 200 μM PE with 1 μM Propranolol or 50 μM Metoprolol, 10 days, vs PE + 0.1% DMSO; FIG. 20
HUVEC spheroids = assay: Spheroid-based angiogenic sprouting assay; type: cell-based, human; conditions: for endothelial sprouting of HUVEC spheroids with supernatants of CM cultured with PE plus β-blocker: neonatal rat CM 72 hours with 200 μM PE + 1 μM Propranolol or 50 μM Metoprolol, vs PE alone, FIG. 25
Procedure: After 72 hours, cell culture supernatants were centrifuged (500×g, 5 minutes) to deplete dead cells and stored at −80° C.
Endothelial cell sprouting was studied by in vitro spheroid-based angiogenesis assays. In brief, HUVECs were trypsinized and transferred into a mixture of fully supplemented EBM™ and methylcellulose (80%:20%). […] After 24 hours, spheroids were collected, pelleted (200×g, 3 minuted), resuspended in methylcellulose supplemented with FCS (80%:20%) and embedded in a collagen Type-I gel (Corning; 354236). HUVEC spheroids were then either cultured with fully supplemented EBM (+/−VEGF (50 ng/mL; BioLegend; 583702) or +/−PE (200 μM)), maintenance medium or conditioned cell culture medium.

[3] = system: cardiac tissue mimetics (CTMs); assay: CTM size measurement; conditions: 200 μM PE + 1 μM Propranolol / 50 μM Metoprolol vs PE + 0.1% DMSO; FIG. 39
mature CTMs = assay: Injury assay on mature CTMs (immunofluorescence, SHG, Sirius red); type: cell-based, rat, human
Procedure: In case of whole mount stainings, CTMs were permeabilized with 0.2% Triton® X-100 in PBS for 1 hour at room temperature followed by blocking with 5% horse serum (Sigma-Aldrich) in PBS for 30 minutes at room temperature. Primary antibodies (see Table 1) were diluted 1:200 in 5% horse serum and incubated over night at 4° C. Before using the secondary antibody (see table below), CTMs were washed three times with PBS containing 1% Tween 20 and 0.002% Triton® X-100 (referred as PBT from here after) for 20 minutes at room temperature. Secondary antibodies (1:500) and DAPI (1:1000; Carl-Roth GmbH & Co. KG) were diluted in 5% horse serum together and incubated for 4 hours at room temperature in the dark. […] Cryo-sections were prepared by embedding fixed spheroids in O.C.T medium (Tissue-Tek), snap-freezing them in liquid nitrogen and cutting them in 10 μm thick sections. Sections were permeabilized and blocked for one hour in 0.1% Triton® X100 (in PBS+BSA). Primary antibody incubated with the sections diluted 1:50-1:100 in 1 mM MgCl2, 1 mM CaCl2, 0.1 mM MnCl2, 1% Triton® X-100 or 0.2% saponin over night at 4° C. The next day, sections were washed trice with 0.1% Triton® X100/PBS or 0.2 saponin (five minutes each) and incubated with the secondary antibody diluted 1:200 in 0.1% Triton® X100 or 0.2% saponin (in PBS) for one hour at room temperature in the dark. Finally, sections were washed again trice with 0.1% Triton® X100/PBS or 0.2% saponin and mounted with mounting medium containing DAPI or Hoechst 33342. Endothelial cells were stained with Isolectin B4.
The second-harmonics generation imaging was performed on an upright spectral multiphoton microscope (Leica TCS SP8 DIVE, non-descanned spectral detectors, objective HC IRAPO L 25×/1.00 W) using 10 μm thick CTM sections. A 1045 nm laser was used for SHG and the signal was detected with a PMT and a detection window from 517 nm to 527 nm. A second detection window was used to record autofluorescence for comparison (552 nm to 565 nm).
Sirius red staining was used to determine collagen deposition and fibrosis in paraffin sections of young versus aged mice hearts. In a first step, the paraffin sections were deparaffinised with xylene (twice 10 minutes) and an ethanol series of 100%, 95%, 80%, 70% and 50% ethanol (5 minutes each step), before washing the sections with water and PBS (5 minutes each step). In a second step, a 0.1% Picrosirius Red solution was prepared by solving 0.5 g Sirius Red (Waldeck GmbH) in 500 mL picric acid (Sigma-Aldrich) that incubated with the deparaffinised sections for 1 hour. After washing two times with acidified water, the sections were dehydrated with 100% ethanol, cleared with xylene and mounted with Pertex (Medite) […]

Molecule | direct effect on HUVEC tube formation (accumulated tube length) (HUVEC) | angiogenic sprouting in PE-treated CTMs [1] | frequency of CTM contraction (beats per minute) [2] | endothelial sprouting of HUVEC spheroids with supernatants of CM cultured with PE plus β-blocker (HUVEC spheroids) | PE-induced hypertrophic growth (CTM size, fold change) [3] | EC spheroid growth / vascular network growth and branching (cumulative sprout length), direct treatment (HUVEC spheroids) | endothelial-mesenchymal transition (ECs expressing vimentin, SM22α, collagen III) (mature CTMs; mature CTMs treated 3 days with TGF β2, FIGS. 32, 40) | cardiac fibroblast activation (vimentin staining) (mature CTMs; mature CTMs with or without TGF β2, FIG. 28) | CTM vascularization (angiogenic sprouting) (mature CTMs; mature CTMs, 200 μM PE + 10 ng/mL TGF β2, 3 days, vs PE, FIGS. 26, 27) | collagen deposition (SHG, Sirius Red staining) (mature CTMs; mature CTMs, PE + 10 ng/mL TGF β2, 3 days, FIGS. 29-31)
COCCc1ccc(OCC(O)CNC(C)C)cc1 (centres unmarked) [Metoprolol] | no differences; also recorded: could not be detected | significant decrease | significantly decreased; also recorded: reduced | no significant alterations |  |  |  |  |  | 
CC(C)NCC(O)COc1cccc2ccccc12 (centres unmarked) [Propranolol] | no differences; also recorded: could not be detected | significant decrease | significantly decreased; also recorded: reduced | no significant alterations | diminished |  |  |  |  | 
VEGF |  |  |  |  |  | significantly increased |  |  |  | 
TGF β2: transforming growth factor β2 (R&D Systems; 302-B2), inducer of endothelial-mesenchymal transition and cardiac fibrosis (protein, UniProt P61812 303-414, looked up) Transforming growth factor …: ALDAAYCFRNVQDNCCLRPLYIDFKRDLGWKWIHEPKGYNANFCAGACPYLWSSDTQHSRVLSLYNTINPEASASPCCVSQDLEPLTILYYIGKTPKIEQLSNMIVKSCKCS |  |  |  |  |  |  | occurs; also recorded: single ECs expressing vimentin were found | evidence of cardiac fibroblast activation | slightly increased; also recorded: failed to reach significance | induced; also recorded: augments
